# From patent US20250127842A1, “IMMUNE […] THERAPEUTIC NANOPARTICLES” (priority 2021, published 2025)
# System: ID8-vegfA-defb29 murine ovarian serous carcinoma cell line
# Test: CPMV and CPMV-AUNP therapy in a tumor mouse model (serous ovarian cancer, IP)
# Assay type: in vivo, C57BL/6J mice
# Description: FIGS. 3A-3B: (FIG. 3A) Female C57BL/6 mice were inoculated (i.p.) with 2×10^6 ID8-Defb29/Vegf-A cells followed by six weekly injections (i.p.) of PBS control (n=5), 1 μg AUNP (n=3), 100 μg CPMV (n=5), 100 μg CPMV-AUNP (n=7), 100 μg CPMV+1 μg AUNP physical mixture (n=7). Body weight was measured to monitor tumor growth. Data are means±SEM. Data are plotted for a minimum of n=3 per group. (FIG. 3B) Survival curves of the treatment groups.
# CPMV and CPMV-AUNP therapy in a tumor mouse model: All animal studies were conducted upon approval and in accordance with the University of California, San Diego Institutional Animal Care and Use Committee (IACUC) guidelines. […] Tumor burden was measured by increase in body weight and data were analyzed and plotted using Graphpad Prism software.
# To assay efficacy of the CPMV-AUNP nanoparticle, Applicant used a mouse model of serous ovarian cancer. […] Applicant used luciferase-labeled ID8defb29/vegf cells, allowing us to quantify the disease burden and establishment of disease (data not shown). Imaging is only informative at early time points, before the development of ascites, therefore Applicant used imaging to confirm successful tumor cell injection and tumor formation but then monitored body weight to assess tumor burden and 35 grams body weight was defined as the endpoint for the study. […]
sequence,measurement,setting,value
"SNTSESFGSGGGSGGC [AUNP, anti-PD-1 peptide SNTSESF (side branch of AUNP-12) with GSGGGSGG linker and carboxy-terminal cysteine, from Genscript]",tumor burden as measured by increase in body weight,"1 μg weekly IP, up to day 47 (group removed for non-treatment related reasons)",matched closely the PBS control group
same,"efficacy against disseminated ovarian tumors (survival, tumor burden), in words","weekly IP: 100 μg CPMV or CPMV-AUNP, 1 μg AUNP, or 100 μg CPMV+1 μg AUNP",no apparent effect
